# Experimental data: patent publication US20240316000A1, “METHODS OF TREATMENT” (DIFFUSION PHARMACEUTICALS LLC, priority 2021, published 2024)
# Key:
# [1] = system: permanent (24-hour) focal ischemia; settings: dosages tested 0.023 to 4.580 mg/kg; cited from earlier work
# [2] = system: healthy volunteers exercising at altitude; test: Safety assessment in the altitude study; format: in vivo, human; settings: all doses tested; no serious adverse events reported
# Excerpt: Adverse Events (AE), and Serious Adverse Events (SAE) will be reported per protocols. Laboratory values (complete blood count [CBC], basic metabolic panel [BMP] HIV, HBsAg, HCVAb), vital signs (blood pressure, heart rate, respiratory rate, temperature), and oxygen saturation (SpO2) will be monitored.
# [3] = system: healthy volunteers; test: Safety assessment in the tcpO2 study (adverse events, vital signs); format: in vivo, human
# Experimental: Vital signs during the treatment and evaluation period are assessed at 10, 30, and 60 minutes post-study drug dosing. Adverse events are assessed throughout.
# [4] = system: patients with peripheral artery disease; settings: 0.25 mg/kg to 2.0 mg/kg tested, cited from earlier work
# [5] = system: healthy volunteers; test: Transcutaneous oximetry (tcpO2) pharmacodynamic study, single IV bolus, subjects breathing 100% O2; format: in vivo, human; settings: for Number (%) of Subjects with a TcpO2 increase during Period 2: TSC-treated N = 24, all doses
# Experimental: This is a randomized, double-blind, placebo-controlled, pharmacokinetic, pharmacodynamics study of Trans Sodium Crocetinate (TSC) utilizing Transcutaneous Oximetry Measurement (tcpO2) in healthy volunteers breathing 100% O2. Study assessments include tcpO2 levels, SpO2, and PK.
# TcpO2 sensor electrodes are applied to the left or right lower extremity, per PI discretion. Sensor electrode temperature is preset to 45° C., to allow maximum vasodilation. Risk of sensor site superficial burn is minimal given the relatively brief testing period. Four (4) sensors are applied to the following locations: • Sensor 1: Mid-dorsum of the foot • Sensor 2: 10 cm distal to the lateral femoral epicondyle • Sensor 3: 5 cm proximal to the anterior aspect of the lateral malleolus • Sensor 4: 5 cm proximal from the center of the medial malleolus
# After the tcpO2 sensors have been applied and tested, subjects are placed on O2 via a simple facemask at 6 L/minute, and remain on O2 for 70 minutes prior to study drug administration. The first 10 minutes allow for equilibration of O2 levels, and the subsequent 60 minutes serve as the baseline period. TcpO2 values and SpO2 are recorded every 5 minutes during the above periods. Baseline vital signs are measured within 10 minutes prior to study drug dosing.
# At the end of the 70-minute equilibration/baseline period, subjects continue on O2 and receive a single IV bolus injection of TSC at a dose of 0.5, 1.0, 1.5, 2.0 or 2.5 mg/kg, or placebo. After study drug administration, subjects are evaluated for 60 minutes, with tcpO2 values and SpO2 recorded every 5 minutes. In addition to assessment of tcpO2 every 5 minutes, continuous tcpO2 measurements are provided by the TCOM machine in graphical format.
# The primary analysis is based on the change over time in the tcpO2 measurements following a single administration of TSC in subjects breathing 100% O2. The time-matched changes from Period 1 (60 minute run-in on 100% O2) to Period 2 (60 minute post-drug administration on 100% O2) serve as the dependent variable in the repeated measures analysis. The 60 minute run-in on 100% O2 is intended to account for the intra-subject variability over time and the time-match differences represent the least biased estimate of the effect of the study drug.
# The overall pooled median values across the four TcpO2 sensors are calculated using the median value from each sensor during the same interval. To compare the time-matched changes in TcpO2, a 2-factor (treatment and time) repeated measures (time) analysis of variance (ANOVA) model is used. Contrast statements within the model facilitate comparisons between individual dose arms and placebo over time. Intra-subject changes (Period 2 minus Period 1 in 5-minute intervals) serve as the dependent variable in the model. TcpO2 baseline measures during the 60-minute Period 1 are adjusted for intra-subject variability over time. Time-matched differences between values obtained during Period 1 and Period 2 represent the least biased estimate of the effect of the study drug versus placebo.
# Therefore, a supplementary pharmacodynamic analysis on the intra-subject slopes from each period and sensor is performed. For Period 1, on an intra-subject basis, the median value from each of the 12 intervals is used to construct the slope using orthogonal spacing with respect to time. For Period 2, the slope is constructed using the median value from each of the 13 intervals—of note, Period 2 observations include 1- and 2-minute values—in addition to the 5-minute measurements for comparison to the 12 corresponding intervals of Period 1. An additional set of analyses are conducted using the Period 2 intra-subject slopes as the dependent variable. The active dose groups are pooled and the least square means are compared to placebo. This procedure is repeated iteratively, each time removing the next lowest dose group to determine the separation of each cohort's least square means relative to placebo.
compound,measurement,setting,value
"CC(/C=C/C=C(\C)C(=O)[O-])=C\C=C\C=C(C)\C=C\C=C(/C)C(=O)O.[Na+] [TSC, trans sodium crocetinate]",Dosage of maximal protective effect on cerebral infarct volume,[1],0.092 mg/kg
same,Safety and tolerability,[2],safe and well tolerated at all doses tested
same,Serious adverse events or withdrawals,[3]; 30 subjects,No subjects experience a serious adverse event
same,Number of treatment-emergent adverse events determined to be drug-related,"[3]; of nine events, all mild in intensity",five
same,Subjects with treatment-emergent adverse events,"[3]; seven of the 30 subjects (TSC and placebo cohorts), nine events overall",23.3%
same,Safety and tolerability,[3]; single IV bolus 0.5-2.5 mg/kg,safe and well tolerated
same,Serious adverse events or dose-limiting toxicities,[3]; up to and including the 2.5 mg/kg iv dose,no serious adverse events or dose-limiting toxicities
same,Dose with greatest increase in claudication onset time,[4],0.25 mg/kg
same,Dosing arm with peak increase in peak walking time,[4]; after 5 days of treatment,1.50 mg/kg
same,Dose giving the greatest difference in TcpO2 from placebo,[5]; 1-hour treatment period (Period 2),2.5 mg/kg
same,Peripheral oxygenation levels over time,"[5]; Period 2, placebo shows time related decrease",stable or increasing peripheral oxygenation levels over time
same,Number (%) of Subjects with a TcpO2 increase during Period 2,"[5]; Sensor 1 (mid-dorsum of the foot), placebo 1/5 (20.0%)",16/24 (66.7%)
same,"Intra-subject TcpO2 slopes, Least Square Mean","[5]; Sensor 1, pooling TSC doses ≥1.0 mg/kg, placebo −0.1878, probability 0.0960",0.3537
same,"Intra-subject TcpO2 slopes, Least Square Mean","[5]; Sensor 1, pooling TSC doses ≥1.5 mg/kg, placebo −0.1878, probability 0.1702",0.3027
same,"Intra-subject TcpO2 slopes, Least Square Mean","[5]; Sensor 1, pooling TSC doses ≥2.0 mg/kg, placebo −0.1878, probability 0.1430",0.4359
same,"Intra-subject TcpO2 slopes, Least Square Mean","[5]; Sensor 1, pooling all TSC doses, placebo −0.1878, probability 0.0876",0.3185
same,Number (%) of Subjects with a TcpO2 increase during Period 2,"[5]; Sensor 2, placebo 0/5",4/24 (16.7%)
same,"Intra-subject TcpO2 slopes, Least Square Mean","[5]; Sensor 2, pooling TSC doses ≥1.0 mg/kg, placebo −0.3481, probability 0.1139",0.0656
same,"Intra-subject TcpO2 slopes, Least Square Mean","[5]; Sensor 2, pooling TSC doses ≥1.5 mg/kg, placebo −0.3481, probability 0.1306",0.0149
same,"Intra-subject TcpO2 slopes, Least Square Mean","[5]; Sensor 2, pooling TSC doses ≥2.0 mg/kg, placebo −0.3481, probability 0.0959",0.0753
same,"Intra-subject TcpO2 slopes, Least Square Mean","[5]; Sensor 2, pooling all TSC doses, placebo −0.3481, probability 0.0796",0.0849
same,Number (%) of Subjects with a TcpO2 increase during Period 2,"[5]; Sensor 3, placebo 0/5",3/24 (12.5%)
same,"Intra-subject TcpO2 slopes, Least Square Mean","[5]; Sensor 3, pooling TSC doses ≥1.0 mg/kg, placebo −0.6320, probability 0.0301",0.0132
same,"Intra-subject TcpO2 slopes, Least Square Mean","[5]; Sensor 3, pooling TSC doses ≥1.5 mg/kg, placebo −0.6320, probability 0.0572",0.0249
same,"Intra-subject TcpO2 slopes, Least Square Mean","[5]; Sensor 3, pooling TSC doses ≥2.0 mg/kg, placebo −0.6320, probability 0.0421",0.0846
same,"Intra-subject TcpO2 slopes, Least Square Mean","[5]; Sensor 3, pooling all TSC doses, placebo −0.6320, probability 0.0186",0.0151
same,Number (%) of Subjects with a TcpO2 increase during Period 2,"[5]; Sensor 4, placebo 0/5",6/24 (25.0%)
same,"Intra-subject TcpO2 slopes, Least Square Mean","[5]; Sensor 4, pooling TSC doses ≥1.0 mg/kg, placebo −0.6389, probability 0.0213",0.0260
same,"Intra-subject TcpO2 slopes, Least Square Mean","[5]; Sensor 4, pooling TSC doses ≥1.5 mg/kg, placebo −0.6389, probability 0.0436",−0.0909
same,"Intra-subject TcpO2 slopes, Least Square Mean","[5]; Sensor 4, pooling TSC doses ≥2.0 mg/kg, placebo −0.6389, probability 0.0187",0.0297
same,"Intra-subject TcpO2 slopes, Least Square Mean","[5]; Sensor 4, pooling all TSC doses, placebo −0.6389, probability 0.0230",−0.0198
same,Increase in TcpO2 levels relative to placebo,"[5]; all TSC dose groups, supplemental analysis, Period 2",greater increase in TcpO2 levels than the placebo group
same,TCOM readings after TSC administration compared to placebo,"[5]; persists up to 60 minutes, most pronounced at 2.0 and 2.5 mg/kg iv",positive trend
